Results taken from US20240246992A1, “MACROCYCLIC LRRK2 KINASE INHIBITORS” (LES LABORATOIRES SERVIER, priority 2021, published 2024).
Structures can show the parent of a compound that is named as a salt.

target: human recombinant LRRK2 protein (Homo sapiens, UniProt Q5S007); experiment: LRRK2 kinase activity assay (ADP-Glo, LRRKtide peptide); assay type: biochemical; details: human recombinant LRRK2 wt, LRRKtide peptide and ATP, 1 h at 37° C.
Description: The inhibition of LRRK2 kinase was assessed using human recombinant LRRK2 protein in an in vitro peptide-based kinase assay.
LRRK2 Kinase reactions were carried out in 384-well white polystyrene plates in a final volume of 6 μl using ADP-Glo™ Kinase Assay kit (Promega Corp.). Compound and substrates (LRRKtide peptide and ATP) in assay buffer were first dispensed in wells. Kinase reaction was then started by the addition of human recombinant LRRK2 protein. After 1 h-incubation at 37° C., the enzymatic reactions was stopped by the addition of 6 μl of ADP-Glo Reagent-1 and an additional 40-minutes incubation at 23° C. (residual ATP depletion). A final 30-minutes incubation after 12 μL reagent-2 addition (ADP to ATP conversion and luciferin/luciferase reaction) was performed before luminescent signal acquisition (EnVision™ multimode plate reader—PerkinElmer, Inc.). Data from 10 individual concentrations of tested compounds (N=2) were fitted (XLfit™—ID Business Solutions Ltd) to deliver IC50s (compound concentration leading to 50% inhibition of reference enzymatic activity).
The compounds are dissolved to 5 mM in DMSO. When needed, solutions are sonicated in a bath sonicator.
Table 2 provides the pIC50 values of the compounds according to the invention, obtained using the above mentioned kinase assay. Activities are represented as +++, ++ and +, having the following meanings: • «+++» means an IC50<10 nM • «++» means an IC50<100 nM • «+» means an IC50<1 μM • «−» means an IC50>1 μM

human recombinant LRRK2 protein, sequence (Q5S007 whole entry): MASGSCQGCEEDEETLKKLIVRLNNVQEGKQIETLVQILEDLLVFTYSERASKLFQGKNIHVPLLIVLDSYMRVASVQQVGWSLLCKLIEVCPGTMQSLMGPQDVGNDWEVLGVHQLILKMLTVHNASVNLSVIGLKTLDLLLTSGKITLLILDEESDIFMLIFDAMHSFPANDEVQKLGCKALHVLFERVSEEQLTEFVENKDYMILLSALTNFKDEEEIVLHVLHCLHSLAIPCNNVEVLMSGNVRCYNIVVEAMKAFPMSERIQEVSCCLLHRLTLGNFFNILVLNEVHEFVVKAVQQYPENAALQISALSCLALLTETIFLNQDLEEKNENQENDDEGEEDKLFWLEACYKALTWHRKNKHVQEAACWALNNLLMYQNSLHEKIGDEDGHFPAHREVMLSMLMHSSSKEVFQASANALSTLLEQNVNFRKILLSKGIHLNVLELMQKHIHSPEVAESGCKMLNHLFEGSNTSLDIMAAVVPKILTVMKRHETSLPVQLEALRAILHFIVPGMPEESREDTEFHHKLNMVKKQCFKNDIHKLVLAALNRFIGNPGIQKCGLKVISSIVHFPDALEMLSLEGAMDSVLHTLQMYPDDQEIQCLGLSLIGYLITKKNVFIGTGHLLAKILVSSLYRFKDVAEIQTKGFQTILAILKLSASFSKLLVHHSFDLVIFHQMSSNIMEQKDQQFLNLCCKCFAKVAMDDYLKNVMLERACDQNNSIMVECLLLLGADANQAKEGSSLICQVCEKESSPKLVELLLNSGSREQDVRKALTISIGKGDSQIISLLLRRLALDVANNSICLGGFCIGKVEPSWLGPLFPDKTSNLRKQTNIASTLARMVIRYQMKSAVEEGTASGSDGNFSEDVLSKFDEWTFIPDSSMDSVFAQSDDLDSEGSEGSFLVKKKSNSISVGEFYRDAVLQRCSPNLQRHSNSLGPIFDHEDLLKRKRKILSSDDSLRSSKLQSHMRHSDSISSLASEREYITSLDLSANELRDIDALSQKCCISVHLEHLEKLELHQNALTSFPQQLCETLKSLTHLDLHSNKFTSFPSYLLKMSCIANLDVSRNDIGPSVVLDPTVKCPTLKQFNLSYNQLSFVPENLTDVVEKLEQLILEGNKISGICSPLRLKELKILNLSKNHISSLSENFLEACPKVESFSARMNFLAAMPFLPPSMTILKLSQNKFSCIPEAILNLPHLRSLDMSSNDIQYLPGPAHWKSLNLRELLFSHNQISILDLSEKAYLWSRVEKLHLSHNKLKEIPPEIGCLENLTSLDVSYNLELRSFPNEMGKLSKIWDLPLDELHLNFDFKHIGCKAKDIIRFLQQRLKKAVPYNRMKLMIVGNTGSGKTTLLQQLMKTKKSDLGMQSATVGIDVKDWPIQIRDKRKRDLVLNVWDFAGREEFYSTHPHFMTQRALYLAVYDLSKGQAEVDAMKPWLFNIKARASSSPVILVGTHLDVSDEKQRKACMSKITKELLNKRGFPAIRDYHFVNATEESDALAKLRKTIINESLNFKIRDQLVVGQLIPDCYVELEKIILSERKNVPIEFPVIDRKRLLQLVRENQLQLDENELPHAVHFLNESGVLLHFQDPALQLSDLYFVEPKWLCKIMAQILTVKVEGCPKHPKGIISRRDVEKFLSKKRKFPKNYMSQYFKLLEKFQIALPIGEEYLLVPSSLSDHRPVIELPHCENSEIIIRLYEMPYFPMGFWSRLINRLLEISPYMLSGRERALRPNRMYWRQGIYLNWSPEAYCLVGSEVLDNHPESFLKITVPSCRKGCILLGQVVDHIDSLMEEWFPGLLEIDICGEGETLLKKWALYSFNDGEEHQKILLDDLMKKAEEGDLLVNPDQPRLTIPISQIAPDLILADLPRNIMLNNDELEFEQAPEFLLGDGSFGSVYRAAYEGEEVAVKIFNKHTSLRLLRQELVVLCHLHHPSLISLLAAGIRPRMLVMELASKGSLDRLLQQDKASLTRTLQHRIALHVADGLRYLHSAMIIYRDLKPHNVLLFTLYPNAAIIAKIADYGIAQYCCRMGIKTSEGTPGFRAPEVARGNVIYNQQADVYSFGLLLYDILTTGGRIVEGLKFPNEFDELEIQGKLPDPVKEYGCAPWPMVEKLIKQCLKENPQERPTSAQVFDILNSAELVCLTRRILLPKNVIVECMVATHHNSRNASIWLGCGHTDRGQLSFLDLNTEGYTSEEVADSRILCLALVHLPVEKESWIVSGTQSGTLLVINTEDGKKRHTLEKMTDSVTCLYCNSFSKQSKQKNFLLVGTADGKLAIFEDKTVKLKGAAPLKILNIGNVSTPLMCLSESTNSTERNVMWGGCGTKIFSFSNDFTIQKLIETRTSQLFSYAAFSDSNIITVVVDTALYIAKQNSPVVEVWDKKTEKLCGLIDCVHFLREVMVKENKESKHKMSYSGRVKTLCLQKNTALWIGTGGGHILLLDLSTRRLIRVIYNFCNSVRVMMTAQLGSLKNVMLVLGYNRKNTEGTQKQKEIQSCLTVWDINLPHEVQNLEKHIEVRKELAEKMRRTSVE

Row | SMILES | IC50
1 | O=C1CCn2ncc(n2)-c2n[nH]c3ccc(cc23)OC[C@@H](F)CN1 [Example 225, (11S)-11-fluoro-13-oxa-4,5,9,18,19,22-hexaazatetracyclo [12.5.2.1^2,5.0^17,20]docosa-1(19),2(22),3,14(21),15,17(20)-hexaen-8-one] | < 10 nM
2 | C[C@@H]1COCCOC[C@H](C)n2cc(cn2)-c2n[nH]c3ccc(cc23)O1 [Example 93, (6S,13R)-6,13-dimethyl-8,11,14-trioxa-4,5,19,20-tetraazatetracyclo[13.5.2.1^2,5.0^18,21]tricosa-1(20),2(23),3,15(22),16,18(21)-hexaene] | < 100 nM
3 | COC1CN(c2cc3nc(n2)O[C@H](C)COCC[C@H](C)Oc2ccc4[nH]nc-3c4c2)C1 [Example 44, (8R,13S)-4-(3-methoxyazetidin-1-yl)-8,13-dimethyl-7,10,14-trioxa-5,19,20, 23-tetraazatetracyclo[13.5.2.1^2,6.0^18,21]tricosa-1(20),2(23),3,5,15(22),16, 18(21)-heptaene] | < 10 nM
4 | C[C@H]1COc2cncc(n2)-c2n[nH]c3ccc(cc23)O[C@@H](C)CCO1 [Example 51, (9S,13S)-9,13-dimethyl-7,10,14-trioxa-4,19,20,23-tetraazatetracyclo[13.5.2.1^2,6.0^18,21]tricosa-1(20),2(23),3,5,15(22),16,18(21)-heptaene] | < 100 nM
5 | C[C@@H]1COCCOc2ccc3[nH]nc(c3c2)-c2cnn(c2)CCO1 [Example 60, (9R)-9-methyl-8,11,14-trioxa-4,5,19,20-tetraazatetracyclo[13.5.2.1^2,5.0^18,21] tricosa-1(20),2(23),3,15(22),16,18(21)-hexaene] | < 100 nM
6 | O=C1COc2cc(cc(N3CCCCC3)c2)-c2n[nH]c3ccc(cc23)OCCCN1 [Example 204, 4-(piperidin-1-yl)-7,14-dioxa-10,19,20-triazatetracyclo [13.5.2.1^2,6.0^18,21]tricosa-1(20),2(23),3,5,15,17,21-heptaen-9-one] | < 10 nM
7 | CN1CCCOc2ccc3[nH]nc(c3c2)-c2cc(cnc2F)OCC1=O [Example 200, 3-fluoro-10-methyl-7,14-dioxa-4,10,19,20-tetraazatetracyclo[13.5.2.1^2,6.0^18,21]tricosa-1(20),2,4,6(23),15(22),16,18(21)-heptaen-9-one] | < 1000 nM
8 | O=C1COc2cc(cc(N3CCN(C4CC4)CC3)c2)-c2n[nH]c3ccc(cc23)OCCCN1 [Example 217, 4-(4-cyclopropylpiperazin-1-yl)-7,14-dioxa-10,19,20-triazatetracyclo[13.5.2.1^2,6.0^18,21]tricosa-1(20),2(23),3,5,15,17,21-heptaen-9-one] | < 10 nM
9 | O=C1NCCCOc2ccc3[nH]nc(c3c2)-c2cccc(c2)[C@H]2C[C@H]12 [Example 164, (7S,9S)-15-oxa-11,20,21-triazapentacyclo[14.5.2.1^2,6.0^7,9.0^19,22] tetracosa-1(21),2(24),3,5,16(23),17,19(22)-heptaen-10-one] | < 100 nM
10 | C[C@H]1CCOCCOCC2=NC=C(S2)c2n[nH]c3ccc(cc23)O1 [Example 66, (13S)-13-methyl-7,10,14-trioxa-23-thia-4,19,20-triazatetracyclo[13.5.2.1^2,5.0^18,21]tricosa-1(20),2,4,15(22),16,18(21)-hexaene] | < 10 nM
11 | c1cc2[nH]nc3c2cc1OCCCOCCOc1cncc-3c1 [Example 2, 7,10,14-trioxa-4,19,20-triazatetracyclo[13.5.2.1^2,6.0^18,21]tricosa-1(20),2(23), 3,5,15(22),16,18(21)-heptaene] | < 10 nM
12 | C[C@@H]1CCOC[C@H](C)Oc2ccc3[nH]nc(c3c2)-c2cncc(c2)O1 [Example 18, (8R,13S)-8,13-dimethyl-7,11,14-trioxa-4,19,20-triazatetracyclo[13.5.2.1^2,6. 0^18,21]tricosa-1(20),2(23),3,5,15(22),16,18(21)-heptaene] | < 10 nM
13 | C[C@H]1CCNC(=O)CCn2ncc(n2)-c2n[nH]c3ccc(cc23)O1 [Example 226, (12S)-12-methyl-13-oxa-4,5,9,18,19,22-hexaazatetracyclo [12.5.2.1^2,5.0^17,20]docosa-1(19),2(22),3,14(21),15,17(20)-hexaen-8-one] | < 10 nM
14 | CC1CNCCCOc2ccc3[nH]nc(c3c2)-c2cc(cc(N3CCOCC3)c2)O1 (single isomer, unassigned) [Example 178, (8R) or (8S)-8-methyl-4-(morpholin-4-yl)-7,14-dioxa-10,19,20-triazatetracyclo[13.5.2.1^2,6.0^18,21]tricosa-1(20),2,4,6(23),15,17,21-heptaene] | < 10 nM
15 | C[C@H]1CCOCCOCc2nc(cn2C)-c2n[nH]c3ccc(cc23)O1 [Example 79, (13S)-4,13-dimethyl-7,10,14-trioxa-4,19,20,23-tetraazatetracyclo[13.5.2.1^2,5.0^18,21]tricosa-1(20),2,5(23),15(22),16,18(21)-hexaene] | < 100 nM
16 | C[C@@H]1CCn2ncc(n2)-c2n[nH]c3ccc(cc23)O[C@H](C)CCO1 [Example 127, (8R,12R)-8,12-dimethyl-9,13-dioxa-4,5,18,19,22-pentaazatetracyclo [12.5.2.1^2,5.0^17,20]docosa-1(19),2(22),3,14(21),15,17(20)-hexaene] | < 10 nM
17 | O=C1COc2cc(cc(N3CCNCC3)c2)-c2n[nH]c3ccc(cc23)OCCCN1 [Example 212, 4-(piperazin-1-yl)-7,14-dioxa-10,19,20-triazatetracyclo [13.5.2.1^2,6.0^18,21]tricosa-1(20),2(23),3,5,15,17,21-heptaen-9-one] | < 10 nM
18 | C[C@H]1COc2ccc3[nH]nc(c3c2)-c2cnn(c2)CCCCCO1 [Example 112, (12S)-12-methyl-11,14-dioxa-4,5,19,20-tetraazatetracyclo[13.5.2.1^2,5.0^18,21] tricosa-1(20),2(23),3,15(22),16,18(21)-hexaene] | < 10 nM
19 | C[C@@H]1COCCCOc2ccc3[nH]nc(c3c2)-c2ccnc(n2)O1 [Example 55, (8R)-8-methyl-7,10,14-trioxa-5,19,20,23-tetraazatetracyclo[13.5.2.1^2,6.0^18,21] tricosa-1(20),2(23),3,5,15(22),16,18(21)heptaene] | < 10 nM
20 | C[C@@H]1COCCOCCn2ccc(n2)-c2n[nH]c3ccc(cc23)O1 [Example 83, (13R)-13-methyl-8,11,14-trioxa-5,19,20,23-tetraazatetracyclo[13.5.2.1^2,5.0^18,21]tricosa-1(20),2(23),3,15(22),16,18(21)-hexaene] | < 1000 nM
21 | C[C@@H]1COCC[C@H](C)Oc2cncc(c2)-c2n[nH]c3ccc(cc23)O1 [Example 11, (8S,13R)-8,13-dimethyl-7,11,14-trioxa-4,19,20-triazatetracyclo[13.5.2.1^2,6.0^18,21]tricosa-1(20),2(23),3,5,15(22),16,18(21)-heptaene] | < 100 nM
22 | C[C@@H]1COc2ccc3[nH]nc(c3c2)-c2cccc(c2)OCCN[C@@H]1C [Example 228, (11R,12S)-11,12-dimethyl-7,14-dioxa-10,19,20-triazatetracyclo[13.5.2.1^2,6.0^18,21]tricosa-1(20),2,4,6(23),15(22),16,18(21)-heptaene] | < 10 nM
23 | C[C@@H]1COCCO[C@@H](C)c2cncc(c2)-c2n[nH]c3ccc(cc23)O1 [Example 14, (7S,13R)-7,13-dimethyl-8,11,14-trioxa-4,19,20-triazatetracyclo[13.5.2.1^2,6. 0^18,21]tricosa-1(20),2(23),3,5,15(22),16,18(21)-heptaene hydrochloride] | < 100 nM
